Source: patent US20110160399A1, “HISTONE MODIFICATION INHIBITOR SPECIFIC TO TARGET GENE” (NIHON UNIVERSITY, priority 2008, published 2011)

Legend:
Type in all cases: cell-based, human
[1] = test system: acetylation of histone H3 lysine 9 in the genomic region of the LARP1 gene; assay: Genomic region-specific acetylation analysis (ChIP, anti-histone H3K9 acetyl antibody), LARP1 gene region; details: HeLa cells, 150 nM, 7 days; FIG. 10
Method: (§1) In a 10% fetal bovine serum-containing DMEM medium prepared to contain the synthesized compound (SAHA+p16 PIP or SAHA+non-targeting PIP) or SAHA at a final concentration of 150 nM, HeLa cells were cultured at 37° C. in the presence of 5% CO2 for 7 days. After culture, 5×10^6 to 1×10^7 confluent cells were harvested in 100 mm diameter cell culture dishes (Corning 430167) and then subjected to chromatin immunoprecipitation assay with a MILIPORE 17-295 Chromatin Immunoprecipitation (ChIP) assay kit.
(§2) The detailed procedures used are as follows. To the harvested cells cultured for 7 days, formalin was added at a final concentration of 1% and incubated at 37° C. for 10 minutes to fix the cells, whereby proteins and DNAs were crosslinked within the cells. Then, glycine was added at a final concentration of 0.25 M and the supernatant was removed, followed by washing the cell layer. Then, the cell layer was treated with 220 μl lysis buffer and the cell lysate was collected with a scraper. […] Real-time RT-PCR.” More specifically, the purified DNA was quantitatively analyzed with SYBR premix EX Taq (TAKARA BIO, Shiga, Japan) in a Thermal Cycler Dice Real-time System TP-800 (TAKARA BIO, Shiga, Japan). […]

[2] = test system: acetylation of histone H3 lysine 9 in the p16 genomic region; assay: Genomic region-specific acetylation analysis (ChIP, anti-histone H3K9 acetyl antibody), p16 genomic region; details: HeLa cells, 150 nM, 7 days; FIG. 10
Method: as §1, §2

LARP1 gene expression = assay: Expression analysis of LARP1 gene by quantitative PCR in HEK293 cells; details: 150 nM, one week, compared to esterified SAHA+p16 PIP or SAHA+non-targeting PIP, FIG. 11
Method: HEK293 cells were used to analyze LARP1 gene expression. HEK293 cells are a cell line established by transformation of human embryonic kidney cells with the adenovirus E1 gene. The LARP1 gene includes, in its gene region, a sequence similar to the sequence of the regulatory region in the p16 gene recognized by SAHA+p16 PIP, as described above. More specifically, the expression analysis was accomplished as follows. HEK293 cells were cultured in DMEM growth medium containing 10% fetal calf serum (FCS). During culture, the medium was replaced every two days by a culture solution containing the synthesized compound (SAHA+p16 PIP, esterified SAHA+p16 PIP or SAHA+non-targeting PIP) at a final concentration of 150 nM, and cell culture was continued for one week in the medium containing the above synthesized compound. After one week, the cells were lysed with 1 ml of TRIzol and then mixed with 200 μl of chloroform, followed by centrifugation at 12000×g at 4° C. for 10 minutes. Then, the supernatant was mixed with an equal volume of isopropanol and centrifuged at 12000×g at 4° C. for 10 minutes. Then, the pellet was washed with a 70% ethanol solution and centrifuged at 5000×g for 5 minutes to remove the supernatant. […] The RNA (1 μg) was used as a template to synthesize cDNA, followed by quantitative PCR. […]

CN(C)CCCNC(=O)CCNC(=O)c1cc(NC(=O)c2nc(NC(=O)c3nc(NC(=O)CCNC(=O)c4cc(NC(=O)c5nc(NC(=O)CCCNC(=O)c6cc(NC(=O)c7nc(NC(=O)CCNC(=O)c8cc(NC(=O)c9cc(NC(=O)c%10nc(NC(=O)CCNC(=O)CCNC(=O)c%11ccc(NC(=O)CCCCCCC(=O)NO)cc%11)cn%10C)cn9C)cn8C)cn7C)cn6C)cn5C)cn4C)cn3C)cn2C)cn1C [SAHA+p16 PIP, SAHA-ββImPyPyβImPyγImPyβImImPyβDp]
acetylation of histone H3 lysine 9 in the genomic region of the LARP1 gene [1]: enhanced acetylation
enhancement of histone H3 lysine 9 acetylation in the LARP1 genomic region compared to SAHA alone or SAHA+non-targeting PIP [1]: about 2.5 fold
acetylation of histone H3 lysine 9 in the p16 genomic region [2]: enhanced acetylation
enhancement of histone H3 lysine 9 acetylation in the p16 genomic region compared to SAHA alone or SAHA+non-targeting PIP [2]: about 2 fold
expression of the LARP1 gene (LARP1 gene expression): increased expression
